Test results: article PMC7753147, “High-throughput determination of protein affinities using unmodified peptide libraries in nanomolar scale” (iScience, 2020)

How the values were obtained:
FL-geph = assay: µSPOT peptide microarray binding assay with full-length geph
native geph = assay: µSPOT peptide microarray binding assay with native geph from mouse brain lysate
gephE = assay: µSPOT peptide microarray binding assay with recombinant gephE
[1] = µSPOT peptide microarray, GlyRβ full positional scan, intensity normalised to wild-type sequence DLRSNDFSIVGSLPR (=1)
[2] = µSPOT peptide microarray, GlyRβ full positional scan, native geph from mouse brain lysate, intensity normalised to wild-type sequence DLRSNDFSIVGSLPR (=1)
[3] = µSPOT peptide microarray, GlyRβ full positional scan, recombinant gephE, intensity normalised to wild-type sequence DLRSNDFSIVGSLPR (=1)
[4] = µSPOT full positional scan of GlyRβ 15-mer DLRSNDFSIVGSLPR, intensity normalised to wild-type sequence (= 1)
[5] = µSPOT full positional scan of GlyRβ 15-mer DLRSNDFSIVGSLPR, native geph, intensity normalised to wild-type sequence (= 1)

Fl-geph Binding Intensity [norm.] (FL-geph; [1]) | Native geph Binding Intensity [norm.] (native geph; [2]) | gephE Binding Intensity [norm.] (gephE; [3]) | Fl-geph Binding Intensity [norm.] (FL-geph; [4]) | Native geph Binding Intensity [norm.] (native geph; [5]) | gephE Binding Intensity [norm.] (gephE; [4]) | Sequence
0.53 norm. | 0.34 norm. | 0.56 norm. |  |  |  | DLRSNDFSGVGSLPR [GlyRβ_Full_Positional_Scan_162, GlyR β 414-428 variant I422G]
0.55 norm. | 0.21 norm. | 0.41 norm. |  |  |  | DLRSNDFSHVGSLPR [GlyRβ_Full_Positional_Scan_173, GlyR β 414-428 variant I422H]
0.65 norm. | 0.47 norm. | 0.51 norm. |  |  |  | DLRSNDFSIAGSLPR [GlyRβ_Full_Positional_Scan_181, GlyR β 414-428 variant V423A]
0.67 norm. | 0.36 norm. | 0.45 norm. |  |  |  | DLRSNDFSICGSLPR [GlyRβ_Full_Positional_Scan_197, GlyR β 414-428 variant V423C]
0.35 norm. | 0.28 norm. | 0.46 norm. |  |  |  | DLRSNDFSIDGSLPR [GlyRβ_Full_Positional_Scan_190, GlyR β 414-428 variant V423D]
0.69 norm. | 0.53 norm. | 0.58 norm. |  |  |  | DLRSNDFSIEGSLPR [GlyRβ_Full_Positional_Scan_191, GlyR β 414-428 variant V423E]
0.7 norm. | 0.43 norm. | 0.64 norm. |  |  |  | DLRSNDFSIFGSLPR [GlyRβ_Full_Positional_Scan_187, GlyR β 414-428 variant V423F]
0.56 norm. | 0.27 norm. | 0.48 norm. |  |  |  | DLRSNDFSIGGSLPR [GlyRβ_Full_Positional_Scan_182, GlyR β 414-428 variant V423G]
0.46 norm. | 0.2 norm. | 0.32 norm. |  |  |  | DLRSNDFSIHGSLPR [GlyRβ_Full_Positional_Scan_193, GlyR β 414-428 variant V423H]
0.63 norm. | 0.16 norm. | 0.5 norm. |  |  |  | DLRSNDFSIKGSLPR [GlyRβ_Full_Positional_Scan_194, GlyR β 414-428 variant V423K]
0.66 norm. | 0.23 norm. | 0.39 norm. |  |  |  | DLRSNDFSILGSLPR [GlyRβ_Full_Positional_Scan_184, GlyR β 414-428 variant V423L]
0.86 norm. | 0.38 norm. | 0.44 norm. |  |  |  | DLRSNDFSIMGSLPR [GlyRβ_Full_Positional_Scan_198, GlyR β 414-428 variant V423M]
0.79 norm. | 0.17 norm. | 0.4 norm. |  |  |  | DLRSNDFSINGSLPR [GlyRβ_Full_Positional_Scan_199, GlyR β 414-428 variant V423N]
0.51 norm. | 0.31 norm. | 0.41 norm. |  |  |  | DLRSNDFSIPGSLPR [GlyRβ_Full_Positional_Scan_185, GlyR β 414-428 variant V423P]
1.03 norm. | 0.41 norm. | 0.7 norm. |  |  |  | DLRSNDFSIQGSLPR [GlyRβ_Full_Positional_Scan_200, GlyR β 414-428 variant V423Q]
0.73 norm. | 0.21 norm. | 0.6 norm. |  |  |  | DLRSNDFSIRGSLPR [GlyRβ_Full_Positional_Scan_192, GlyR β 414-428 variant V423R]
0.64 norm. | 0.3 norm. | 0.41 norm. |  |  |  | DLRSNDFSISGSLPR [GlyRβ_Full_Positional_Scan_195, GlyR β 414-428 variant V423S]
0.97 norm. | 0.59 norm. | 0.66 norm. |  |  |  | DLRSNDFSITGSLPR [GlyRβ_Full_Positional_Scan_196, GlyR β 414-428 variant V423T]
0.56 norm. | 0.18 norm. | 0.34 norm. |  |  |  | DLRSNDFSIVASLPR [GlyRβ_Full_Positional_Scan_201, GlyR β 414-428 variant G424A]
 |  |  | 0.45 norm. | 0.23 norm. | 0.43 norm. | DLRSNDFSIVCSLPR [GlyRβ_Full_Positional_Scan_217, GlyR β 414-428 variant G424C]
0.16 norm. | 0.15 norm. | 0.22 norm. |  |  |  | DLRSNDFSIVDSLPR [GlyRβ_Full_Positional_Scan_210, GlyR β 414-428 variant G424D]

Fl-geph Binding Intensity [norm.] (FL-geph; [1]) | Native geph Binding Intensity [norm.] (native geph; [2]) | gephE Binding Intensity [norm.] (gephE; [3]) | Fl-geph Binding Intensity [norm.] (FL-geph; [4]) | Native geph Binding Intensity [norm.] (native geph; [5]) | gephE Binding Intensity [norm.] (gephE; [4]) | Sequence
0.18 norm. | 0.14 norm. | 0.23 norm. |  |  |  | DLRSNDFSIVESLPR [GlyRβ_Full_Positional_Scan_211, GlyR β 414-428 variant G424E]
0.54 norm. | 0.22 norm. | 0.43 norm. |  |  |  | DLRSNDFSIVFSLPR [GlyRβ_Full_Positional_Scan_207, GlyR β 414-428 variant G424F]
 |  |  | 1.04 norm. | 0.99 norm. | 0.77 norm. | DLRSNDFSIVGALPR [GlyRβ_Full_Positional_Scan_221]
 |  |  | 0.83 norm. | 0.48 norm. | 0.63 norm. | DLRSNDFSIVGCLPR [GlyRβ_Full_Positional_Scan_237]
 |  |  | 0.77 norm. | 0.45 norm. | 0.52 norm. | DLRSNDFSIVGDLPR [GlyRβ_Full_Positional_Scan_230]
 |  |  | 0.84 norm. | 0.49 norm. | 0.64 norm. | DLRSNDFSIVGELPR [GlyRβ_Full_Positional_Scan_231]
 |  |  | 0.88 norm. | 0.37 norm. | 0.64 norm. | DLRSNDFSIVGFLPR [GlyRβ_Full_Positional_Scan_227]
 |  |  | 0.99 norm. | 0.86 norm. | 0.75 norm. | DLRSNDFSIVGGLPR [GlyRβ_Full_Positional_Scan_222]
 |  |  | 1.01 norm. | 0.9 norm. | 0.8 norm. | DLRSNDFSIVGHLPR [GlyRβ_Full_Positional_Scan_233]
 |  |  | 1.05 norm. | 0.45 norm. | 0.62 norm. | DLRSNDFSIVGILPR [GlyRβ_Full_Positional_Scan_223]
 |  |  | 0.96 norm. | 0.47 norm. | 0.81 norm. | DLRSNDFSIVGKLPR [GlyRβ_Full_Positional_Scan_234]
 |  |  | 1.01 norm. | 0.44 norm. | 0.62 norm. | DLRSNDFSIVGLLPR [GlyRβ_Full_Positional_Scan_224]
 |  |  | 0.88 norm. | 0.89 norm. | 0.77 norm. | DLRSNDFSIVGMLPR [GlyRβ_Full_Positional_Scan_238]
 |  |  | 1.17 norm. | 1.16 norm. | 0.74 norm. | DLRSNDFSIVGNLPR [GlyRβ_Full_Positional_Scan_239]
 |  |  | 0.7 norm. | 0.25 norm. | 0.51 norm. | DLRSNDFSIVGPLPR [GlyRβ_Full_Positional_Scan_225]
 |  |  | 1.12 norm. | 1.4 norm. | 0.84 norm. | DLRSNDFSIVGQLPR [GlyRβ_Full_Positional_Scan_240]
 |  |  | 1.06 norm. | 0.8 norm. | 0.87 norm. | DLRSNDFSIVGRLPR [GlyRβ_Full_Positional_Scan_232]
 |  |  | 1.07 norm. | 1 norm. | 0.9 norm. | DLRSNDFSIVGSAPR [GlyRβ_Full_Positional_Scan_241]
 |  |  | 0.87 norm. | 0.88 norm. | 0.85 norm. | DLRSNDFSIVGSCPR [GlyRβ_Full_Positional_Scan_257]
 |  |  | 1.05 norm. | 0.61 norm. | 0.72 norm. | DLRSNDFSIVGSDPR [GlyRβ_Full_Positional_Scan_250]
